Entries after “also recorded” stand apart in the source; their conditions may differ. Read-outs that look alike come from different tables or passages of the source.
Assays:
[1] = test system: rats following MCAO; experiment: Brain infarction quantification (Nissl thionin) after MCAO; type: in vivo, rat; conditions: s.c. daily for 3 days from 24 h post-MCAO (NAGH 0.86, NAD 2.8, Bromo-DTG 8.2, Chloro-DTG 8.5 mg/kg/day); 30 days post MCAO
Protocol: All animal procedures were performed according to the University of South Florida guidelines for the care and use of animals and protocols were reviewed and approved by the Institutional Animal Care and Use Committee and adhered to the NIH guidelines for the care and use of animals. Adult male Sprague Dawley rats (Harlan) weighing about 250-300 g at the time of surgery were used for the study. All animals were housed two per cage in a temperature controlled room, under a 12 hour light-dark cycle, and given access to water and food ad libitum. Animals were monitored daily for wellness and biweekly for weight loss. For the NAGH studies, a total of 84 animals were randomly assigned to 2 groups: MCAO only (n=42) and rat treated with NAGH (n=42) beginning 24 hour after MCAO.
(§1) MCAO surgeries were performed as described elsewhere (Vendrame M, Cassady C J, Newcomb J, Butler T, Pennypacker K R, Zigova T, et al. Stroke. 2004; 35:2390-2395). Briefly, rats were anesthetized with isoflurane, and the right common carotid and external carotid arteries were exposed using blunt dissection techniques. The vagus nerve was separated from common carotid artery and the external carotid artery was ligated proximally, and transected near the bifurcation. An embolus 40 mm in length (4.0 siliconized monofilament) was inserted into the external carotid artery and fed distally into the origin of the middle cerebral artery (˜25 mm from insertion) through the internal carotid artery. Blood samples were taken and analyzed using an i-STAT handheld analyzer for hemoglobin, hematocrit, ionized calcium, glucose, sodium, potassium, pH, pCO2, HCO3, TCO2, base excess, pO2, and O2. Cerebral blood flow was recorded using a Laser Doppler Monitor (Moor Instruments) to verify occlusion. Afterwards, the embolus was ligated permanently into the vessel and the neck incision was closed. Animals were treated with Ketoprofen IM (10 mg/kg) for three days post-surgery.
(§2) For the NAGH studies, vehicle or NAGH were prepared fresh each day. Daily subcutaneous injections (s.c) were administered beginning about 24 hours after MCAO and continued daily to about 72 hours post-surgery (FIG. 1). Animals received a total of 3 injections. A total of 84 animals were randomly assigned into 2 groups: Rats treated with vehicle (40% DMSO in sterile saline, n=42), or rats treated with 0.86 mg/kg NAGH (n=42).
For the studies with other compounds based on the structure of DTG, twenty-four hours after MCAO, the rats began a sigma agonist treatment regimen. Vehicle or drug was prepared fresh each day. […]
Infarct size was determined by Nissl thionin staining. […]

[2] = test system: permanent middle cerebral artery occlusion (MCAO); conditions: administered beginning 24 hours after permanent MCAO; cited from earlier work
[3] = test system: microglial cells; experiment: Inhibition of microglial migration evoked by ATP; type: cell-based
Protocol: (§3) FIG. 8 is a series of images confirming NAGH acts as a sigma receptor agonist. A) Concentration-response relationship for NAGH (closed circles) and DTG (open circles) inhibition of microglial migration evoked by 100 μM ATP. […] Points represent mean (±SEM) and for all points, n>9. B) Bar graph of the mean (±SEM) number of microglial cells migrating in response to 100 μM ATP when ATP was added alone (DMEM) or in the presence of 100 μM NAGH. Microglia were further exposed to no σ antagonist (Control), or the σ-1 antagonist, BD-1047 (10 μM, BD-1047), or the σ-2 antagonist, rimcazole (10 μM, Rimcazole). Asterisks denote significant difference between DMEM and NAGH within Control, BD-1047 and Rimcazole groups, respectively. Pound symbols indicate significant difference between Control, BD-1047 and Rimcazole within DMEM and NAGH groups, respectively. P<0.05 and n=24 for all groups.
as §3, with “8A illustrates the concentration-response” for “8 is a series of images confirming NAGH acts as a sigma receptor agonist. A) Concentration-response”, “FIG. 8B depicts a bar” for “B) Bar”

[4] = test system: microglial cells; conditions: 24 hours after in vitro ischemia; cited from earlier work
[5] = test system: rats following MCAO; experiment: Spontaneous activity (automated activity monitor) after MCAO; type: in vivo, rat; conditions: NAD 2.8 mg/kg s.c. x3; 30 days after MCAO; day and night
Protocol: as §1, §2
(§4) For NAD testing, a total of 32 animals were randomly assigned into 2 groups: Vehicle (n=16), and rat treated with 2.8 mg/kg NAD (n=16). Vehicle consisted of 40% DMSO in sterile saline.
Spontaneous Activity was measured during both the day (1 hr) and night (12 hrs) using an automated activity monitor (VersaMax, Accuscan Instruments, Inc). Spontaneous Activity was measured prior to stroke to establish the normal baseline for each individual animal as well as 1 month after the MCAO. The animals were placed in a Plexiglas box and allowed to roam freely. There is a three dimensional infrared array in this box and when a beam is broken, activity is recorded. A total of sixteen parameters were measured including: Vertical movement, Horizontal movement, and Stereotypic activity were selected for analysis: Horizontal activity (HA), Total distance travelled (TD), Number of movements (MVN), Movement time (MVT), Vertical activity (VA), Number of vertical movements (VMN), vertical time (VT), Stereotype counts (SC), Number of Stereotypy (SN), Stereotypy time (ST), Clockwise rotation (CR), counterclockwise rotation (CCR), Margin distance (MD), Marginal time (MT), Center distance (CD), and Center time (CT). The data are presented as mean+SEM of percent of baseline behavior.

[6] = test system: rats following MCAO; experiment: Battery of behavioral tests after MCAO (corner, grip, rotorod, step, cylinder); type: in vivo, rat; conditions: NAD 2.8 mg/kg s.c. x3; 30 days after MCAO
Protocol: After surgery, animals were tested was performed once before surgery and 30 days post-surgery for motor coordination and behavior. All behavioral data are reported as mean+sem.
Rotorod test, which measures motor coordination, was conducted using Omni-rotor Rotorod (Omnitech, Inc). Animals were trained on the accelerating rotorod apparatus for 3 consecutive days before times were collected. Animals were placed on the revolving rod and instrument was set to accelerate to a maximum speed of 40 rpm over 180 seconds. Latency to fall (in seconds) was recorded. This test was performed in triplicate once per day for 3 days.
(§5) Rats were held tightly with one forelimb placed on a hard flat table top and then pulled for a length of 1 meter in the direction of the placed forelimb at constant velocity. The test was repeated with the opposite forelimb. This was repeated three times for each forelimb and the percent of contralateral forelimb paw was obtained. The bias was standardized as the absolute number of steps with the contralateral paw minus 100.
The animals were placed in a transparent cylinder about 20 cm in diameter and 30 cm in height with an open top. The number times each paw was placed on the sides of the cylinder was counted a5 minute period. The test was videotaped and a mirror was placed behind the cylinder allowing the experimenter to see the placement of paws when the animal was facing away from the camera.
A 30 degree angle was formed using the edges of two plexiglass boards. The animals were placed halfway into the corner facing the corner and the total number of left and right turns was recorded. A total of 10 trials were conducted and videotaped. A non-lesioned animal turned randomly toward the left or right, while a lesioned animal preferentially turned toward the non-impaired (left) side. Results were reported as the percentage of ipsilateral (injury site, right side) versus contralateral turns.
Motor deficits were assessed using a grip strength meter (Bioseb, # BIO-GS3). […] Grip strength was recorded in Newtons (N). […]

[7] = test system: rats following MCAO; experiment: Grip strength test after MCAO; type: in vivo, rat; conditions: NAD 2.8 mg/kg s.c. x3; 30 days after MCAO; p=0.0007
Protocol: as §4
Motor deficits were assessed using a grip strength meter (Bioseb, # BIO-GS3). The animals were held so the front left paw could firmly grasp the bar of the strength meter, and then pulled straight backward until its front paw released its grasp. Grip strength was recorded in Newtons (N). This test was repeated 3 times.

[8] = test system: rats following MCAO; experiment: Step test after MCAO; type: in vivo, rat; conditions: NAD 2.8 mg/kg s.c. x3; 30 days post-stroke; p<0.05
Protocol: as §4, §5

[9] = test system: stroke; conditions: Ruscher, Shamloo et al. 2011; cited from earlier work
[10] = migration evoked by 100 μM ATP, two-component Langmuir-Hill fit

Cl.N=C(Nc1ccc(Br)cc1)Nc1ccc(Br)cc1 [Bromo-DTG, N,N′-di-p-Bromophenylguanidine hydrochloride]
Infarct volume vs vehicle [1]: did not show significant effects over vehicle

Cl.N=C(Nc1cccc(Cl)c1)Nc1cccc(Cl)c1 [Chloro-DTG, N,N′-di-m-Chlorophenylguanidine hydrochloride]
Infarct volume vs vehicle [1]: did not show significant effects over vehicle

Cc1ccccc1NC(=N)Nc1ccccc1C [DTG, 1,3-di-o-tolylguanidine, reference compound]
Infarct size 96 hrs post-MCAO [2]: decreased infarct volume; also recorded: decreased infarct size | Long-term functional recovery [2]: failed to improve long-term functional recovery | Emax, high affinity component [3, 10]: 0.38 | Emax, low affinity component [3, 10]: 0.62 | Hill coefficient, high affinity component [3, 10]: 0.59 | Hill coefficient, low affinity component [3, 10]: 1.7 | IC50 ([3]; migration evoked by 100 μM ATP, two-component Langmuir-Hill fit, read-out: IC50, high affinity component): 0.76 µM | IC50 ([3]; read-out: IC50, low affinity component): 80 µM | Microglial cell death [4]: significantly reduced microglial cell death

Cl.N=C(Nc1ccc([N+](=O)[O-])cc1)Nc1ccc([N+](=O)[O-])cc1 [NAD, N,N′-di-p-Nitrophenylguanidine hydrochloride]
Activity vs MCAO-only animals [5]: less activity than MCAO-only animals | Infarct volume vs vehicle [1]: not significant | Overall behavioral data vs vehicle, all tests except Grip Strength and Step test [6]: no significant difference | Average grip strength vs non-treated rats [7]: significantly higher | Step test, steps with impaired paw compared to unimpaired paw [8]: 100.3 ± 5.6%

COc1ccc(CCN2CCN(CCCc3ccccc3)CC2)cc1OC [SA4503]
Infarct size [9]: without decreasing infarct size | Sensorimotor function [9]: improved sensorimotor function

Source: patent publication US9636311B2, “N,N′-di-1 naphthylguanidine HCl (NAGH) and N,N′-di-p-nitrophenylguanidine HCl (NAD) treatment for stroke at delayed timepoints” (University of South Florida, priority 2012, dated 2017)
